In patent US9518018B2, “3-alkoxy, thioalkyl and amino-4-amino-6-(substituted)picolinates and their use as herbicides” (Dow AgroSciences LLC, priority 2011, dated 2016):

Tests used:
[1] = tested on: ABUTH: velvetleaf (Abutilon theophrasti); experiment: Post-Emergent Test I herbicidal activity; assay type: in vivo; conditions: Abutilon theophrasti, post-emergence, 336 h, read-out: Visual Growth Reduction (%)-14 Days after Application ABUTH; for pest or weed control at 70 g/ha: Table 3, 70 g ai/ha; for pest or weed control at 140 g/ha: Table 3, 140 g ai/ha; for pest or weed control at 280 g/ha: Table 3, 280 g ai/ha
In short: (§1)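 Greenhouse-grown seedlings (peat-based mix, pH 6.0–6.8; ~15 h photoperiod, 23–29 °C day) were sprayed post-emergence at first/second true-leaf stage with compound in acetone/DMSO/aqueous crop-oil–surfactant carrier at 187 L/ha, using a twofold rate series. Injury was scored visually after 14 d (0–100%); GR20/GR50/GR80 derived by probit analysis.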

[2] = tested on: CHEAL: lambsquarters (Chenopodium album); experiment: Post-Emergent Test I herbicidal activity; assay type: in vivo; conditions: Chenopodium album, post-emergence, 336 h, read-out: Visual Growth Reduction (%)-14 Days after Application CHEAL; for pest or weed control at 70 g/ha: Table 3, 70 g ai/ha; for pest or weed control at 140 g/ha: Table 3, 140 g ai/ha; for pest or weed control at 280 g/ha: Table 3, 280 g ai/ha
In short: as §1

[3] = tested on: CYPES: yellow nutsedge (Cyperus esculentus); experiment: Post-Emergent Test I herbicidal activity; assay type: in vivo; conditions: post-emergence, 336 h, read-out: Visual Growth Reduction (%)-14 Days after Application CYPES; for pest or weed control at 70 g/ha: Table 3, 70 g ai/ha; for pest or weed control at 140 g/ha: Table 3, 140 g ai/ha; for pest or weed control at 280 g/ha: Table 3, 280 g ai/ha
In short: as §1

[4] = tested on: ECHCG: barnyardgrass (Echinochloa crus-galli); experiment: Post-Emergent Test I herbicidal activity; assay type: in vivo; conditions: post-emergence, 336 h, read-out: Visual Growth Reduction (%)-14 Days after Application ECHCG; for pest or weed control at 70 g/ha: Table 3, 70 g ai/ha; for pest or weed control at 140 g/ha: Table 3, 140 g ai/ha; for pest or weed control at 280 g/ha: Table 3, 280 g ai/ha
In short: (§2)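 Foliar spray, 187 L/ha, track sprayer; plants at 1st–2nd true leaf, 7–21 d old. Carrier: acetone/DMSO + aqueous acetone/IPA/crop oil/Triton X-155; high rate plus ½×–1/16× dilutions. Subirrigated; visual % injury vs untreated at 14 d.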

[5] = tested on: EPHHL: wild poinsettia (Euphorbia heterophylla); experiment: Post-Emergent Test I herbicidal activity; assay type: in vivo; conditions: post-emergence, 336 h, read-out: Visual Growth Reduction (%)-14 Days after Application EPHHL; for pest or weed control at 70 g/ha: Table 3, 70 g ai/ha; for pest or weed control at 140 g/ha: Table 3, 140 g ai/ha; for pest or weed control at 280 g/ha: Table 3, 280 g ai/ha
In short: as §1

[6] = tested on: ORYSA: rice (Oryza sativa); experiment: Post-Emergent Test I herbicidal activity; assay type: in vivo; conditions: post-emergence, 336 h, read-out: Visual Growth Reduction (%)-14 Days after Application ORYSA; for pest or weed control at 70 g/ha: Table 3, 70 g ai/ha; for pest or weed control at 140 g/ha: Table 3, 140 g ai/ha; for pest or weed control at 280 g/ha: Table 3, 280 g ai/ha
In short: as §2

ZEAMX: corn (Zea mays) = experiment: Post-Emergent Test I herbicidal activity; assay type: in vivo; conditions: Zea mays, post-emergence, 336 h, read-out: Visual Growth Reduction (%)-14 Days after Application ZEAMX; for pest or weed control at 70 g/ha: Table 3, 70 g ai/ha; for pest or weed control at 140 g/ha: Table 3, 140 g ai/ha; for pest or weed control at 280 g/ha: Table 3, 280 g ai/ha
In short: as §1

| SMILES | melting point | pest or weed control at 140 g/ha [1] | pest or weed control at 140 g/ha [2] | pest or weed control at 140 g/ha [3] | pest or weed control at 140 g/ha [4] | pest or weed control at 140 g/ha [5] | pest or weed control at 140 g/ha [6] | pest or weed control at 140 g/ha (ZEAMX: corn (Zea mays)) | other results |
| --- | --- | --- | --- | --- | --- | --- | --- | --- | --- |
| COc1c(C(=O)O)nc(-c2cc(F)c(I)cc2F)c(F)c1N [Compound 60] | 132 to 134 °C |  |  |  |  |  |  |  | pest or weed control at 70 g/ha [1]: 60%; pest or weed control at 70 g/ha [2]: 90%; pest or weed control at 70 g/ha [3]: 50%; pest or weed control at 70 g/ha [4]: 95%; pest or weed control at 70 g/ha [5]: 100%; pest or weed control at 70 g/ha [6]: 15%; pest or weed control at 70 g/ha (ZEAMX: corn (Zea mays)): 75% |
| COC(=O)c1nc(-c2ccc(Cl)cc2)c(Cl)c(N)c1OC [Compound 44, methyl 4-amino-5-chloro-6-(4-chlorophenyl)-3-methoxypicolinate] | 139 to 141 °C | 50% | 100% | 100% | 0% | 0% | 0% | 15% |  |
| CSc1c(C(=O)O)nc(Cl)c(F)c1N [Compound 73] | 176 to 178 °C | 10% | 10% | 0% | 0% | 50% | 0% | 0% |  |
| COC(=O)c1nc(-c2ccc(C(F)(F)F)nc2)c(F)c(N)c1OC [Compound 40] | 130 to 132 °C | 80% | 100% | 100% | 50% | 100% | 0% | 70% |  |
| COc1c(Cl)ccc(-c2cc(N)c(OC(F)F)c(C(=O)O)n2)c1F [Compound 64] | 169 to 171 °C |  |  |  |  |  |  |  | pest or weed control at 280 g/ha [1]: 50%; pest or weed control at 280 g/ha [2]: 85%; pest or weed control at 280 g/ha [3]: 0%; pest or weed control at 280 g/ha [4]: 0%; pest or weed control at 280 g/ha [5]: 95%; pest or weed control at 280 g/ha [6]: 0%; pest or weed control at 280 g/ha (ZEAMX: corn (Zea mays)): 10% |
| COC(=O)c1nc(-c2ccc(Cl)cc2)c(F)c(N)c1OC [Compound 31, methyl 4-amino-6-(4-chlorophenyl)-5-fluoro-3-methoxypicolinate] | 93 to 94 °C | 100% | 100% | 100% | 95% | 100% | 15% | 85% |  |
| COc1c(C(=O)O)nc(-c2cc(F)c(Cl)cc2F)c(F)c1N [Compound 57] | 153.5 to 155 °C |  |  |  |  |  |  |  | pest or weed control at 70 g/ha [1]: 85%; pest or weed control at 70 g/ha [2]: 100%; pest or weed control at 70 g/ha [3]: 70%; pest or weed control at 70 g/ha [4]: 90%; pest or weed control at 70 g/ha [5]: 100%; pest or weed control at 70 g/ha [6]: 0%; pest or weed control at 70 g/ha (ZEAMX: corn (Zea mays)): 75% |
| COc1c(C(=O)O)nc(-c2ccc(C(F)(F)F)cc2)c(F)c1N [Compound 50] | 135 to 137 °C | 90% | 90% | 100% | 70% | 100% | 30% | 75% |  |
| COC(=O)c1nc(-c2ccc(Cl)c(N(C)C)c2F)c(F)c(N)c1OC [Compound 43] | 113 to 115 °C | 90% | 100% | 50% | 80% | 100% | 0% | 70% |  |
| COc1c(C(=O)O)nc(-c2ccc(C(F)(F)F)c(F)c2F)c(F)c1N [Compound 56] | 133 to 135 °C | 80% | 90% | 50% | 100% | 100% | 10% | 75% |  |
| CCOC(=O)c1nc(-c2ccc(Cl)cc2F)cc(N)c1OCC(F)(F)F [Compound 67, ethyl 4-amino-6-(4-chloro-2-fluorophenyl)-3-(2,2,2-trifluoro-ethoxy)picolinate] | 123 to 125 °C |  |  |  |  |  |  |  | pest or weed control at 280 g/ha [1]: 25%; pest or weed control at 280 g/ha [2]: 50%; pest or weed control at 280 g/ha [3]: 0%; pest or weed control at 280 g/ha [4]: 0%; pest or weed control at 280 g/ha [5]: 35%; pest or weed control at 280 g/ha [6]: 0%; pest or weed control at 280 g/ha (ZEAMX: corn (Zea mays)): 0% |
| CSc1c(C(=O)O)nc(-c2ccc(Cl)c(F)c2)c(F)c1N [Compound 72] | 168 to 170 °C | 80% | 100% | 90% | 0% | 100% | 30% | 60% |  |
| COC(=O)c1nc(-c2ccc(C(F)(F)F)c(F)c2F)c(F)c(N)c1OC [Compound 38] | 139 to 141 °C | 85% | 90% | 50% | 10% | 100% | 0% | 75% |  |
| COC(=O)c1nc(-c2ccc(Cl)c(OC)c2F)c(F)c(N)c1SC [Compound 94, Methyl 4-amino-6-(4-chloro-2-fluoro-3-methoxyphenyl)-5-fluoro-3-(methylthio)picolinate] | 113 to 117 °C | 60% | 85% | 0% | 0% | 65% | 0% | 0% |  |
| COC(=O)c1nc(-c2cc(F)c(I)cc2F)c(F)c(N)c1OC [Compound 25] | 127 to 129 °C | 70% | 90% | 100% | 85% | 100% | 0% | 70% |  |
| COc1c(C(=O)O)nc(-c2ccc(C(F)(F)F)nc2)c(F)c1N [Compound 63] | 160 to 162 °C | 90% | 100% | 100% | 95% | 100% | 50% | 80% |  |
| COC(=O)c1nc(-c2ccc(Cl)c(F)c2)c(F)c(N)c1SC [Compound 93, Methyl 4-amino-6-(4-chloro-3-fluorophenyl)-5-fluoro-3-(methylthio)picolinate] | 125 to 126 °C | 30% | 90% | 0% | 0% | 50% | 0% | 0% |  |
